This passage reports IC50 and Kd results from ChEMBL document CHEMBL3779861, “Selective Inhibition of CBX6: A Methyllysine Reader Protein in the Polycomb Family” (ACS Med Chem Lett, 2016).

Assay [1] has as its target T1, Chromobox protein homolog 7 (Homo sapiens, UniProt O95931).
T1 sequence (O95931 whole entry): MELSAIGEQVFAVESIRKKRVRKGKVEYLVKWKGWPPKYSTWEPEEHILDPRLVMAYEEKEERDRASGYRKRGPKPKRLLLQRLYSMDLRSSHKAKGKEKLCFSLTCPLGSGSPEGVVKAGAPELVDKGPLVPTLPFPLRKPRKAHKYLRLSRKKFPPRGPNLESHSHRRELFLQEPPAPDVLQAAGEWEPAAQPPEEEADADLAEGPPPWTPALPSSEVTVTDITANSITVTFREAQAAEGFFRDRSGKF
Briefly: Binding affinity to N-terminal His6-tagged human CBX7 (8 to 62) expressed in Escherichia coli BL21 using FITC-peptide-3 as competitive binding probe by fluorescence polarization assay.

For assay [2], the target named is T2, Chromobox protein homolog 6 (Homo sapiens, UniProt O95503).
T2 sequence (O95503 whole entry): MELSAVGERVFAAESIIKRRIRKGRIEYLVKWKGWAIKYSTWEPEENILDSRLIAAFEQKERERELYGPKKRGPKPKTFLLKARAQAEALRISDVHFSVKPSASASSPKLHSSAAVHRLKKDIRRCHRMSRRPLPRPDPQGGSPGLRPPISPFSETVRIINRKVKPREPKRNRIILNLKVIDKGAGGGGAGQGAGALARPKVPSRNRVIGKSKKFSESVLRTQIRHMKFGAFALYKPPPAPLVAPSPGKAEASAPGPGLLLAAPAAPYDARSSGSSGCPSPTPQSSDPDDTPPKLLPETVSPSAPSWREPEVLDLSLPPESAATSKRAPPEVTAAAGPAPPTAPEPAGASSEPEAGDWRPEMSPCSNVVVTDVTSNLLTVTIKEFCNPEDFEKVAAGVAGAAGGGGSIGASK
Briefly: Binding affinity to N-terminal His6-tagged human CBX6 (8 to 65 residues) expressed in Escherichia coli BL21 by surface plasmon resonance assay.

The target in assay [3] is T1, Chromobox protein homolog 7. Put plainly: Binding affinity to N-terminal His6-tagged human CBX7 (8 to 62 residues) expressed in Escherichia coli BL21 by surface plasmon resonance assay.
Assay [4] addresses Chromobox protein homolog 7 (Homo sapiens, UniProt O95931, V13A). Briefly: Binding affinity to human CBX7 V13A mutant expressed in Escherichia coli BL21 by surface plasmon resonance assay.
Assay [5] addresses Chromobox protein homolog 1 (Homo sapiens, UniProt P83916).
Assay [6] addresses T3, Chromobox protein homolog 2 (Homo sapiens, UniProt Q14781).
T3 sequence (Q14781 whole entry): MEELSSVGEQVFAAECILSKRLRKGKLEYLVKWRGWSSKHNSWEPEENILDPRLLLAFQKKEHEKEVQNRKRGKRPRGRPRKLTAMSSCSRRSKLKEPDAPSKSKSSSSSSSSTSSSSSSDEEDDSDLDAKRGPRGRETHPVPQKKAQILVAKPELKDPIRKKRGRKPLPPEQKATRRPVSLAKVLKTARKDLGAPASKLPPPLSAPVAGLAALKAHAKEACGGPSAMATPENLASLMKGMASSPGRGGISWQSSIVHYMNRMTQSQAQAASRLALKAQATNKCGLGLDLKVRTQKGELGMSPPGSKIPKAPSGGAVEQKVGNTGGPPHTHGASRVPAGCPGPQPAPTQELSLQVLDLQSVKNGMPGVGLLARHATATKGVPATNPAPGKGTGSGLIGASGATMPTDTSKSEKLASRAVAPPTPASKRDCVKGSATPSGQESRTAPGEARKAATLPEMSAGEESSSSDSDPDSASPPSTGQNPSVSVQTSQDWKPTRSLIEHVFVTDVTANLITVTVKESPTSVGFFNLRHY
Put plainly: Binding affinity to N-terminal His6-tagged human CBX2 (8 to 62) expressed in Escherichia coli BL21 using FITC-peptide-3 as competitive binding probe by fluorescence polarization assay.

For assay [7], the target named is T4, E3 SUMO-protein ligase CBX4 (Homo sapiens, UniProt O00257).
T4 sequence (O00257 whole entry): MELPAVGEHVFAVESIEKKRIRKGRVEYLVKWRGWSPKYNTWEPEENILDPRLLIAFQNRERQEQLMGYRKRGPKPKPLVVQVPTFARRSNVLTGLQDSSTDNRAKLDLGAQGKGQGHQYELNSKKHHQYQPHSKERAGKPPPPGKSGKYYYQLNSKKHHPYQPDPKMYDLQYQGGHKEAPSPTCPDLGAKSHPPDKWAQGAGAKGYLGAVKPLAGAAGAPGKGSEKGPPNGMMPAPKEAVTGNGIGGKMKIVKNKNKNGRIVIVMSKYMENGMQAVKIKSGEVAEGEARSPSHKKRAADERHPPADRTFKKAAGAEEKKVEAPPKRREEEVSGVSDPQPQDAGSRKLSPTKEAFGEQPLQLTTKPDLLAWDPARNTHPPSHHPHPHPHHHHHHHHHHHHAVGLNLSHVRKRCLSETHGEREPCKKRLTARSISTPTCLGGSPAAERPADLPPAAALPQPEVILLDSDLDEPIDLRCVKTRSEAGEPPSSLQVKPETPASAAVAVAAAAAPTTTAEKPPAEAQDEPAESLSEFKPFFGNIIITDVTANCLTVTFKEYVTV
Put plainly: Binding affinity to N-terminal His6-tagged human CBX4 (8 to 65 residues) expressed in Escherichia coli BL21 using FITC-peptide-3 as competitive binding probe by fluorescence polarization assay.

Assay [8] has as its target T2, Chromobox protein homolog 6. Briefly: Binding affinity to N-terminal His6-tagged human CBX6 (8 to 65 residues) expressed in Escherichia coli BL21 using FITC-peptide-3 as competitive binding probe by fluorescence polarization assay.
The target of assay [9] is T5, Chromobox protein homolog 8 (Homo sapiens, UniProt Q9HC52).
T5 sequence (Q9HC52 whole entry): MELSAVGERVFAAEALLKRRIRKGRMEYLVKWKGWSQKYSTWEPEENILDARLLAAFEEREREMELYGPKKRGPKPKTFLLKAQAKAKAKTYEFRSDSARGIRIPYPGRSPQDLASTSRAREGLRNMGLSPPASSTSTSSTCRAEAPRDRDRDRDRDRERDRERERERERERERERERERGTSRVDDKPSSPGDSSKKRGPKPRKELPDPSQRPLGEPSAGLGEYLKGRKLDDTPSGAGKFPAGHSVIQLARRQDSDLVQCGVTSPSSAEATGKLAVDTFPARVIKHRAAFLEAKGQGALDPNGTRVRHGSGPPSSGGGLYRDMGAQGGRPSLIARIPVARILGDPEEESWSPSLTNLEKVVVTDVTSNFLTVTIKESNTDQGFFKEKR
Put plainly: Binding affinity to N-terminal His6-tagged human CBX8 (8 to 61 residues) expressed in Escherichia coli BL21 using FITC-peptide-3 as competitive binding probe by fluorescence polarization assay.

Non-standard residues stand in square brackets, D forms with d. Residues, ends and D or L forms follow the SMILES beside them. *: point of attachment. X1 = O=C(O)c1cc(NC(=S)*)ccc1-c1c2ccc(=O)cc-2oc2cc(O)ccc12; Biotin = O=C1N[C@H]2[C@H](CS[C@H]2CCCCC(=O)*)N1; Lys(Me3) = C[N+](C)(C)CCCC[C@H](N)C(=O)O; Benzoyl(4-Br) = O=C(c1ccc(Br)cc1)*; Abu = CC[C@H](N)C(=O)O

Chromobox protein homolog 1, sequence (P83916 whole entry): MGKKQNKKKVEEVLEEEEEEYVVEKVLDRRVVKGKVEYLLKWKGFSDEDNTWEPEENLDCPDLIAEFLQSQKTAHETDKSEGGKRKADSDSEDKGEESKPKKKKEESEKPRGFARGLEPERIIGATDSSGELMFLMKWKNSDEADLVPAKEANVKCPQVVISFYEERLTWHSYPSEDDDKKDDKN
Chromobox protein homolog 7 (Homo sapiens, UniProt O95931, V13A), sequence (O95931 whole entry V13A): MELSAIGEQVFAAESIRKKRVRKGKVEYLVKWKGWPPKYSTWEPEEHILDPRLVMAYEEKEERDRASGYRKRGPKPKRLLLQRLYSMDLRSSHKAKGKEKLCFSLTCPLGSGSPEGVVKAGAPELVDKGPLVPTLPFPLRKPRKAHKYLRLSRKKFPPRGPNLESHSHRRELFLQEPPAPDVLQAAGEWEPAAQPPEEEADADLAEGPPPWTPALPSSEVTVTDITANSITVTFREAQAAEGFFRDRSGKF

As for `C[C@H](NC(=O)[C@H](Cc1ccccc1)NC(=O)c1ccc(Br)cc1)C(=O)N[C@@H](Cc1ccc(O)cc1)C(=O)N[C@@H](CCCC[N+](C)(C)C)C(=O)N[C@@H](CO)C(N)=O` ({Benzoyl(4-Br)}-FAY[Lys(Me3)]S-NH2), in assay [1], the IC50 was 1.7 µM.
For the compound `C[C@H](NC(=O)[C@H](Cc1ccccc1)NC(=O)c1ccc(Br)cc1)C(=O)N[C@@H](Cc1ccc(O)cc1)C(=O)N[C@@H](CCCC[N+](C)(C)C)C(=O)N[C@@H](CO)C(=O)N[C@@H](CCC(=O)O)C(=O)N[C@@H](CCCCNC(=O)CCCC[C@@H]1SC[C@@H]2NC(=O)N[C@@H]21)C(N)=O` ({Benzoyl(4-Br)}-FAY[Lys(Me3)]SEK(Biotin)-NH2), the figures for the Kd in assay [2], in assay [3] and in assay [4] were 0.11 µM, 0.16 µM and 0.29 µM, respectively.
On to `C[C@H](NC(=O)[C@H](Cc1ccccc1)NC(=O)c1ccc(Br)cc1)C(=O)N[C@@H](Cc1ccc(O)cc1)C(=O)N[C@@H](CCCC[N+](C)(C)C)C(=O)N[C@@H](CO)C(=O)N[C@@H](CCC(=O)O)C(=O)N[C@@H](CCCCNC(=S)Nc1ccc(-c2c3ccc(=O)cc-3oc3cc(O)ccc23)c(C(=O)O)c1)C(N)=O` ({Benzoyl(4-Br)}-FAY[Lys(Me3)]SEK(X1)-NH2), for which the Kd stood at 0.1 µM in assay [1]; 5.5 µM in [5]; 0.3 µM in assay [6]; 0.2 µM in assay [7]; 0.3 µM in assay [8]; 1 µM in assay [9].
Regarding `CC(C)[C@H](NC(=O)[C@H](Cc1ccccc1)NC(=O)c1ccc(Br)cc1)C(=O)N[C@@H](Cc1ccc(O)cc1)C(=O)N[C@@H](CCCC[N+](C)(C)C)C(=O)N[C@@H](CO)C(=O)N[C@@H](CCC(=O)O)C(=O)N[C@@H](CCCCNC(=O)CCCC[C@@H]1SC[C@@H]2NC(=O)N[C@@H]21)C(N)=O` ({Benzoyl(4-Br)}-FVY[Lys(Me3)]SEK(Biotin)-NH2), the Kd is 0.91 µM in [2], 34 µM in assay [3] and 24 µM in [4].
Consider `CC(C)[C@H](NC(=O)[C@H](Cc1ccccc1)NC(=O)c1ccc(Br)cc1)C(=O)N[C@@H](Cc1ccc(O)cc1)C(=O)N[C@@H](CCCC[N+](C)(C)C)C(=O)N[C@@H](CO)C(=O)N[C@@H](CCC(=O)O)C(=O)N[C@@H](CCCCNC(=S)Nc1ccc(-c2c3ccc(=O)cc-3oc3cc(O)ccc23)c(C(=O)O)c1)C(N)=O` ({Benzoyl(4-Br)}-FVY[Lys(Me3)]SEK(X1)-NH2), for which the Kd in assay [1] is 5.3 µM; in assay [5], 78.4 µM; in [6], 17.6 µM; in assay [7] it was 15.5 µM; in [8] it was 0.9 µM; in assay [9], 6 µM.
With `CC[C@H](NC(=O)[C@H](Cc1ccccc1)NC(=O)c1ccc(Br)cc1)C(=O)N[C@@H](Cc1ccc(O)cc1)C(=O)N[C@@H](CCCC[N+](C)(C)C)C(=O)N[C@@H](CO)C(=O)N[C@@H](CCC(=O)O)C(=O)N[C@@H](CCCCNC(=S)Nc1ccc(-c2c3ccc(=O)cc-3oc3cc(O)ccc23)c(C(=O)O)c1)C(N)=O` ({Benzoyl(4-Br)}-F[Abu]Y[Lys(Me3)]SEK(X1)-NH2), the Kd in assay [1] stood at 0.4 µM; in assay [5] it was 75 µM; in assay [6], 1.6 µM; in assay [7], 0.8 µM; in assay [8], 0.8 µM; in assay [9] it was 1 µM.
